One assay deals with T1, WalK (Bacillus subtilis, UniProt Q45614).
T1 construct: His6 (N); made in house; host or cells: E. coli BL21(DE3)
Put plainly: Inhibition of WalK autophosphorylation. The format is biochemical. On the set-up: key to WalK: WalK + inhibitory effect against WalK. The settings on record: for IC50: against WalK from B. subtilis, autophosphorylation, N.I. = no inhibition; for inhibitory activity against WalK: in words. On the procedure: Autophosphorylation of WalK was conducted at 0.5 or 1 µM in a reaction mixture comprising 50 mM Tris-HCl (pH 8.5), 100 mM KCl, 5 mM MgCl2, 100 mM NH4Cl, 5% DMSO, and 40 µM ATP. The total reaction volume was 40 µl, and the incubation lasted for 30 min at 25 °C. To terminate the reaction, 40 µl of 2 × SDS-PAGE sample buffer was added, followed by a 10-min incubation at 37 °C. Subsequently, SDS-PAGE (10% acrylamide) was performed, and the samples were subjected to Western blotting using a PVDF membrane (Bio-Rad 1620177). The primary antibody used was anti-N3-phosphohistidine antibody (clone SC56-2) (EDM Millipore Corp), and the secondary antibody was goat anti-rabbit IgG-HRP (Abcam). A 2% bovine serum albumin (Sigma-Aldrich) solution served as the blocking reagent. Signals originating from phosphorylated HKs were detected using the HRP substrate (Immobilon Western Chemiluminescent HRP substrate, Millipore) and the Multi Imager II Multi Box (Bio Tools). Signal intensities were quantified with Image Analysis Software CS Analyzer 4 (ATTO). IC50 values (50% inhibitory concentrations) were determined using Prism 7 software (GraphPad).
In the assessment of naphthoquinone derivatives, the initial screening for inhibitory activity against WalK autophosphorylation was conducted at 50 or 100 µg ml^−1. Compounds displaying inhibitory activity were further examined to ascertain their IC50 values against WalK. For the chosen compounds, inhibition against EvgS, EnvZ, PhoQ, and CpxA HKs was also assessed. These reactions involved the use of 1 µM HK, 40 µM ATP, and a 30 min incubation at 25 °C.

The test system of another assay is B. subtilis 168 strain. Kind of assay: MIC, standard microtiter broth dilution. The class given is cell-based, Bacillus subtilis. The settings on record: for MIC: B. subtilis 168 strain grown in LB broth at 37 °C for 18 h; for antibacterial (antimicrobial) activity against B. subtilis: in words. On the procedure: The minimum inhibitory concentrations (MICs) were determined using the standard microtiter broth dilution method, as recommended by the guidelines of the Clinical Laboratory Standards Institute.
A general note: Dilution methods test growth across graded concentrations, often in twofold steps.

Assay [1] concerns the target T2, WalK (207-611, B. subtilis) (Bacillus subtilis, UniProt Q45614).
T2 construct: His6 (N); made in house; host or cells: E. coli BL21(DE3)
Kind of assay: Affinity selection/mass spectrometry, competition with waldiomycin. The class given is binding. On the procedure: The affinity selection/mass spectrometry (AS/MS) is a method which can detect the binding of small compounds to proteins. This experiment was carried out following a previously established protocol (Fig. 5), with the exception of using Millipore 96-well filter plates (MSBVN1210) instead of MAHAN4510. In the experiment, 1 µM of WalK (207-611, B. subtilis, refer to Table S2) was combined and incubated with 5 µM of waldiomycin and competitor compounds in a reaction buffer. The buffer composition was as follows: 25 mM Tris-HCl (pH 8.0), 50 mM KCl, 50 mM NH4Cl, 5 mM MgCl2, 1 mM DTT, and 0.1% CHAPS. Following the incubation, the mixture was subjected to size-exclusion chromatography via centrifugation to eliminate free compounds. The protein that was eluted was then denatured by adding an equal volume of methanol/0.1% formic acid. The compounds that were subsequently released from the protein were detected using an LC/MS system. The concentrations of waldiomycin were calculated from the value of peak areas using calibration curve that covered the range of 1 nM to 1 µM (R^2 = 0.9991). The concentration of waldiomycin in the eluate of WalK and waldiomycin without competitor was 10.1 nM, and percentages to this value were calculated for other samples.

A further assay concerns iseA (formerly yoeB). Kind of assay: RT-qPCR of iseA expression in B. subtilis cells. The class given is cell-based, B. subtilis 168. More on the design: key to RT-qPCR: RT-qPCR + iseA gene expression was induced in B. subtilis 168; − no effect. The settings on record: summary class, iseA gene expression in B. subtilis 168. The method, then: In brief, the cells were aerated and grown to an optical density at 660 nm of 0.3–0.4 at 37 °C. After the addition of DMSO or naphthoquinone derivatives, the cultures were further incubated for 5 min, cooled on ice for 1 min, and then harvested by centrifugation (2300 × g, 10 min, 4 °C). The cells were resuspended in 800 µl of RNA Lysis Buffer (SV Total RNA Isolation System, Z3100, Promega), transferred to a screw-capped tube containing 400 mg of glass beads (GB-01, TOMY), and disrupted using MicroSmash (MS-100, TOMY Medico) at 3000 rpm, 60 s ON/OFF for 6 cycles. RNA was then purified from 175 µl of the supernatant using the SV Total RNA Isolation System, followed by DNase I treatment (Turbo DNA-free^TM Kit, AM1907, Invitrogen) to remove any residual genomic DNA contamination. […] The expression levels of the genes were normalized using the 16S rRNA gene as an internal standard. Each assay was performed at least three times. Statistical analyses were conducted using Tukey’s multiple comparison test (GraphPad Prism 7).

Setting [2] is: Bacillus subtilis, read-out: MIC.

SMILES strings stand for the structures. Entries after “also recorded” stand apart in the source; their conditions may differ. Where two headings read alike, the source gives them in different places. Some results are limits rather than exact numbers.

T2 sequence (Q45614 207-611): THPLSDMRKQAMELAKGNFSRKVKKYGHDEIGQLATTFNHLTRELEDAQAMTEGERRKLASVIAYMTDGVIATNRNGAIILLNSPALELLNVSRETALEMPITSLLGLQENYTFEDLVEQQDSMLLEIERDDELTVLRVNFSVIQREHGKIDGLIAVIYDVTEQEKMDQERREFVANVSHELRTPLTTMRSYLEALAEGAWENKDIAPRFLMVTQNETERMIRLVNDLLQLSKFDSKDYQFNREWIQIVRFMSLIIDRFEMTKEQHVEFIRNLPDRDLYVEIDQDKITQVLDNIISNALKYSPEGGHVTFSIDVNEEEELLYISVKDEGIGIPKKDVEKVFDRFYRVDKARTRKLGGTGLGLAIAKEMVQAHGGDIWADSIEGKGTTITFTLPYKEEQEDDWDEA
T1 sequence (Q45614 207-611): as above

Regarding `O=C1c2onc(-c3ccccc3)c2C(=O)c2c(O)ccc(O)c21` [3a, 5,8-dihydroxy-3-phenylnaphtho[2,3-d]isoxazole-4,9-dione], the IC50 at WalK (read-out: IC50) amounted to 51 µM. In addition, in the assay with B. subtilis 168 strain, the MIC is 0.5 µg/mL and the “antibacterial (antimicrobial) activity against B. subtilis” value (“antibacterial (antimicrobial) activity” below) is given as “equal to waldiomycin or even stronger”.

On to `O=C1C(Cl)=C(Nc2ccc(Cl)c(O)c2)C(=O)c2c(O)ccc(O)c21` [2i, 2-chloro-3-((4-chloro-3-hydroxyphenyl)amino)-5,8-dihydroxynaphthalene-1,4-dione], for which the half-maximal inhibitory concentration (IC50) result on WalK (listed as C00017) is given as “N.I”. Further, at WalK, the “inhibitory activity against WalK” value was “did not show any inhibitory activity; also recorded: inactive”. Moreover, the MIC with B. subtilis 168 strain (listed as C00017) stood at 4 µg/mL. Also, in the assay on B. subtilis 168 strain, the “antibacterial (antimicrobial) activity” value is recorded as “equal to waldiomycin or even stronger”.

As to `COc1ccc(NC2=C(Cl)C(=O)c3c(O)ccc(O)c3C2=O)cc1` [2k, 2-chloro-5,8-dihydroxy-3-((4-methoxyphenyl)amino)naphthalene-1,4-dione], on WalK, the half-maximal inhibitory concentration (IC50) entry is reported as “N.I” and the “inhibitory activity against WalK” value is reported as “did not show any inhibitory activity; also recorded: noninhibitory; also recorded: did not inhibit WalK”. In addition, in the assay on B. subtilis 168 strain, the MIC was more than 128 µg/mL and the “antibacterial (antimicrobial) activity” value was “no or a very weak antimicrobial activity”.

Turning to `O=C(O)c1cc(NC2=C(Cl)C(=O)c3c(O)ccc(O)c3C2=O)ccc1O` [2m, 5-((3-chloro-5,8-dihydroxy-1,4-dioxo-1,4-dihydronaphthalen-2-yl)amino)-2-hydroxybenzoic acid], on WalK (read-out: IC50), the IC50 amounted to 45 µM. The “inhibitory activity against WalK” value on WalK was “weaker”. In addition, in the assay on B. subtilis 168 strain, the MIC is 64 µg/mL and the “antibacterial (antimicrobial) activity” value is “weaker”.

For `O=C(O)c1cc(NC2=C(Cl)C(=O)c3c(cccc3[N+](=O)[O-])C2=O)ccc1O` [2n, 5-((3-chloro-5-nitro-1,4-dioxo-1,4-dihydronaphthalen-2-yl)amino)-2-hydroxybenzoic acid], on WalK, the IC50 entry is recorded as “N.I” and the “inhibitory activity against WalK” value is reported as “did not show any inhibitory activity; also recorded: did not inhibit WalK”. In the assay on B. subtilis 168 strain, the MIC stood at 128 µg/mL and the “antibacterial (antimicrobial) activity” value is recorded as “no or a very weak antimicrobial activity”.

Take `O=C1C(Cl)=C(N2CCNCC2)C(=O)c2ccccc21` [2c, 2-chloro-3-(piperazin-1-yl)naphthalene-1,4-dione]: at WalK, the IC50 entry is reported as “N.I” and the “inhibitory activity against WalK” value was “did not show any inhibitory activity; also recorded: inactive”. For the same compound, in the assay on B. subtilis 168 strain, the MIC was found to be 8 µg/mL and the “antibacterial (antimicrobial) activity” value is on record as “equal to waldiomycin or even stronger”.

On to `O=C1C(Cl)=C(NCCc2ccc(O)c(O)c2)C(=O)c2c(O)ccc(O)c21` [2f, 2-chloro-3-((3,4-dihydroxyphenethyl)amino)-5,8-dihydroxynaphthalene-1,4-dione], for which, on WalK, the IC50 entry is on record as “N.I” and the “inhibitory activity against WalK” value was “did not show any inhibitory activity; also recorded: inactive”. Also, in the assay with B. subtilis 168 strain, the MIC was 8 µg/mL and the “antibacterial (antimicrobial) activity” value is “equal to waldiomycin or even stronger”.

On to `O=C1c2onc(-c3ccccc3)c2C(=O)c2cccc(O)c21` [3c, 8-hydroxy-3-phenylnaphtho[2,3-d]isoxazole-4,9-dione], for which, on WalK, the half-maximal inhibitory concentration (IC50) entry is “N.I” and the “inhibitory activity against WalK” value was “did not show any inhibitory activity”. In addition, in the assay with B. subtilis 168 strain (setting [2]), the MIC was determined as 0.5 µg/mL. In addition, in the assay with B. subtilis 168 strain, the “antibacterial (antimicrobial) activity” value is “equal to waldiomycin or even stronger”.

As to `O=C1C(Nc2ccc(Cl)c(O)c2)=CC(=O)c2c(O)cccc21` [2j, 2-((4-chloro-3-hydroxyphenyl)amino)-5-hydroxynaphthalene-1,4-dione], the IC50 at WalK (read-out: IC50) was determined as 75.1 µM. For the same compound, the MIC with B. subtilis 168 strain (setting [2]) came to 4 µg/mL. In addition, the “antibacterial (antimicrobial) activity” value in the assay with B. subtilis 168 strain was “equal to waldiomycin or even stronger”.

Take `O=C1C(N2CCNCC2)=C(Cl)C(=O)c2c1cccc2[N+](=O)[O-]` [2d, 3-chloro-5-nitro-2-(piperazin-1-yl)naphthalene-1,4-dione]: on WalK (read-out: IC50), the half-maximal inhibitory concentration (IC50) was 305 µM. Also, in the assay with B. subtilis 168 strain, the minimal inhibitory concentration (MIC) turned out to be 8 µg/mL and the “antibacterial (antimicrobial) activity” value was “equal to waldiomycin or even stronger”.

For the compound `O=C1C(Cl)=C(N2CCNCC2)C(=O)c2c(O)ccc(O)c21` [2a, 2-chloro-5,8-dihydroxy-3-(piperazin-1-yl)naphthalene-1,4-dione], the IC50 on WalK (read-out: IC50) worked out at 32.4 µM. For the same compound, the “inhibitory activity against WalK” value on WalK is “weaker”. In addition, the WalK result at WalK (summary class) is given as “+”. Further, the “effect on the signal of waldiomycin” value in assay [1] (compound 30 and 100 µM, in words) is “reduced the signal of waldiomycin in a dose-dependent manner”. In addition, in assay [1] (compound at 100 µM, waldiomycin 5 µM, WalK 1 µM), the “signal of waldiomycin compared to only waldiomycin with WalK” value is recorded as “about 10%”. Further, the “binding to WalK competitive with that of waldiomycin” value in assay [1] (in words) was “competitive; also recorded: competitively interacted with waldiomycin”. Moreover, in the assay on iseA (formerly yoeB), the RT-qPCR result is given as “+”.

For the compound `O=C1C(Cl)=C(Nc2cccc(O)c2)C(=O)c2c(O)ccc(O)c21` [2g, 2-chloro-5,8-dihydroxy-3-((3-hydroxyphenyl)amino)naphthalene-1,4-dione], the half-maximal inhibitory concentration (IC50) at WalK (read-out: IC50) was determined as 31.7 µM. Besides, in the assay with B. subtilis 168 strain, the minimum inhibitory concentration (MIC) worked out at 1 µg/mL and the “antibacterial (antimicrobial) activity” value is given as “equal to waldiomycin or even stronger”.

Take `O=C1C(Cl)=C(NCCO)C(=O)c2c(O)ccc(O)c21` [2e, 2-chloro-5,8-dihydroxy-3-((2-hydroxyethyl)amino)naphthalene-1,4-dione]: at WalK, the half-inhibitory concentration (IC50) entry is “N.I” and the “inhibitory activity against WalK” value was “did not show any inhibitory activity; also recorded: inactive”. In the assay with B. subtilis 168 strain, the MIC was found to be 2 µg/mL and the “antibacterial (antimicrobial) activity” value is on record as “equal to waldiomycin or even stronger”.

A word on the IC50: it is the point on the concentration scale where inhibition reaches its midpoint. By MIC is commonly meant the smallest concentration in the dilution series that meets the test's criterion for growth inhibition.

The values are drawn from publication PMC11284088, “Synthesis and biochemical characterization of naphthoquinone derivatives targeting bacterial histidine kinases” (The Journal of Antibiotics, 2024).
